Measurements from US5821244A, “Condensed nitrogen heterocycles and their use as pesticides, fungicides and antimycotics” (Hoechst Schering AgrEvo GmbH, priority 1993, dated 1998).

Experiments:
Botrytis cinerea = assay: Fungicide test, Botrytis cinerea on broad beans; assay type: in vivo; conditions: 500 mg of active substance/l spray mixture; approximately 1 week after inoculation
Procedure: Broad beans cv. "Herz Freya" or "[…]" approximately 14 days old, were treated to runoff point with aqueous suspensions of the compounds according to the invention. After the spray coating had dried off, the plants were inoculated with a spore suspension (1.5 million spores/ml) of Botrytis cinerea. The plants were grown on in a controlled-environment cabinet at 20°-22° C. under relative atmospheric humidity of approximately 99%. […] The experiments were evaluated approximately 1 week after inoculation. The disease level of the plants was scored in percent relative to untreated, 100% infected control plants.

[1] = tested on: tobacco hornworm (Manduca sexta); assay: Oral application to larvae (L4) of tobacco hornworm; assay type: in vivo
Procedure: Active substances which were dissolved in acetone were applied orally to butterfly larvae (L4) of tobacco hornworm (Manduca sexta). After active substance of Example No. 3 or 8 (2×10^-4 g of a.i./animal) had been applied, a mortality of 100% was found after 48 hours.

[2] = tested on: eggs of Diabrotica undecimpunctata; assay: Activity against freshly deposited eggs of southern corn rootworm; assay type: in vivo; conditions: 120 h, after 5 days
Procedure: Freshly deposited eggs of Diabrotica undecimpunctata (southern corn rootworm) were sprayed, on paper filters, with in each case 2 ml of an aqueous suspension of wettable powders (active substance content 250 ppm) and were subsequently observed at room temperature. After 5 days, the eggs were examined for mortality.

Plasmopara viticola = assay: Fungicide test, Plasmopara viticola on grapevine seedlings; assay type: in vivo; conditions: 500 mg of active substance/l spray mixture; incubation 7 days
Procedure: Approximately 6 weeks after sowing, grapevine seedlings "Riesling/Ehrenfelder" were treated to runoff point using aqueous suspensions of the compounds according to the invention. After the spray coating had dried on, the plants were inoculated with a zoosporangia suspension of Plasmopara viticola and the dripping wet plants were placed for 4 to 5 hours into a controlled-environment cabinet at 23° C. at a relative atmospheric humidity of 80-90%.
After an incubation time of 7 days in the greenhouse, the plants were returned overnight into the controlled-environment cabinet to stimulate sporulation of the fungus. The disease was then evaluated. The disease level was expressed in % of diseased leaf area in comparison with the untreated, 100% infected control plants.

[3] = tested on: eggs of the large milkweed bug (Oncopeltus fasciatus); assay: Ovicidal activity, eggs of large milkweed bug on paper filter disks; assay type: in vivo; conditions: 168 h, after 7 days
Procedure: Paper filter disks onto which eggs of the large milkweed bug (Oncopeltus fasciatus) have been placed are treated with in each case 0.5 ml of aqueous dilution of the test formulation. After the coating has dried on, the Petri dish is sealed, and the inside is kept at maximum atmospheric humidity. After the dishes have been kept at room temperature, the ovicidal activity was determined after 7 days.

[4] = tested on: two-spotted spider mite (Tetranychus urticae); assay: Acaricide test, two-spotted spider mite on bean plants; assay type: in vivo; conditions: 168 h, after 7 days, read-out: mortality rate of the mites
Text: Bean plants (Phaseolus v.) which were heavily infested with the two-spotted spider mite (Tetranychus urticae, full population) were sprayed with the aqueous dilution of a concentrate of wettable powder, containing 250 ppm of the active substance in question. The mortality of the mites was checked after 7 days.

[5] = tested on: whitefly (Trialeurodes vaporariorum); assay: Insecticide test, whitefly on bean plants; assay type: in vivo; conditions: 336 h, after 14 days
Text: Bean plants which were heavily populated with whitefly (Trialeurodes vaporariorum) were sprayed to the beginning of the run-off point using aqueous suspensions of concentrates of wettable powders (250 ppm active substance content). After the plants had been placed in the greenhouse, they were subjected to microscope checks after 14 days, resulting in a 100% mortality in the case of each preparation containing the active substances of Example Nos. 4, 5, 10, 19, 20, 24, 27, 28, 130 and 139.

[6] = tested on: tropical cattle ticks (Boophilus microplus); assay: In vitro test on tropical cattle ticks, inhibition of oviposition; assay type: in vivo; conditions: Rhipicephalus microplus, 336 h, immersion five minutes, two weeks after treatment
Procedure: In vitro test on tropical cattle ticks (Boophilus microplus) The following experimental set-up allowed the effectiveness of the compounds according to the invention against ticks to be confirmed.
To produce a suitable preparation of active substance, the active substances were dissolved to 10% strength (w/v) in a mixture composed of dimethylformamide (85 g), nonylphenolpolyglycol ether (3 g) and ethoxylated castor oil (7 g), and the resulting emulsion concentrates were diluted with water to a test concentration of 500 ppm.
Batches of ten females of the tropical tick Boophilus microplus which had sucked themselves full were immersed for five minutes in these active substance dilutions. The ticks were subsequently dried on paper filters and then attached, with their backs, to an adhesive film-in order to deposit eggs. The ticks were kept in an incubator at 28° C. at an atmospheric humidity of 90%.
As a control, the female ticks were immersed just in water. Two weeks after the treatment, the inhibition of oviposition was used to determine the effectiveness. 100% means that no ticks have deposited eggs, 0 that all ticks have deposited eggs.

Spodoptera littoralis = assay: Insecticide test, Egyptian cotton leafworm larvae (L3); assay type: in vivo; conditions: 120 h, after 5 days
Procedure: Spodoptera littoralis (Egyptian cotton leafworm) larvae in the L3 stage were introduced into Petri dishes filled with nutrient medium, and these dishes together with the larvae were sprayed with 2 ml of an aqueous suspension of wettable powder containing 250 ppm (Corresponding to 6000 l of water/ha). After the spray coating had dried on, the Petri dishes were sealed and stored for 5 days at 21° C. After 5 days, the compound of Example No. 28 had caused a mortality of the Spodoptera larvae of 100%.

Phytophthora infestans = assay type: in vivo; conditions: 500 mg of active substance/l spray mixture; approximately 1 week after inoculation
Leptosphaeria nodorum = assay: Fungicide test, Leptosphaeria nodorum on wheat plants; assay type: in vivo; conditions: 500 mg of active substance/l spray mixture
Procedure: Wheat plants cv. "Jubilar" in the 2-leaf stage were wetted to runoff point using aqueous suspensions of the preparations according to the invention. […] The plants were grown on in the greenhouse at a relative atmospheric humidity of approximately 90% until the symptoms became visible. The disease level was determined in % of diseased leaf area in comparison with the untreated, 100% infected control plants.

Erysiphe graminis = assay: Fungicide test, Erysiphe graminis (powdery mildew) on barley plants; assay type: in vivo, Erysiphe graminis f. sp. hordei; conditions: 500 mg of active substance/l spray mixture; applied 24 hours after inoculation; 10 days
Procedure: Barley plants in the 3-leaf stage were inoculated with large amounts of conidia of powdery mildew of barley (Erysiphe graminis f. sp. hordei) and placed in a greenhouse at 20° C. and a relative atmospheric humidity of 90 to 95%. 24 hours after the inoculation, the plants were wetted uniformly with the abovementioned compounds. After an incubation time of 10 days, the plants were examined for the occurrence of powdery mildew of barley. The disease level was determined in % of diseased leaf area based on untreated, 100% infected control plants.

Pyrenophora teres = assay: Fungicide test, Pyrenophora teres on barley plants; assay type: in vivo; conditions: 500 mg of active substance/l spray mixture; approximately 1 week after inoculation
Procedure: Barley plants cv. "Igri" in the 2-leaf stage were wetted to runoff point with an aqueous suspension of the compounds according to the invention. […] The infected plants were subsequently grown on in the greenhouse at 25° C. at a relative atmospheric humidity of 80%. The disease level was evaluated approximately 1 week after inoculation. The disease level was determined in % of diseased leaf area in comparison with untreated, 100% infected control plants.

Row | SMILES | disease suppression (Botrytis cinerea) | mortality at 250 ppm [3] | mortality at 250 ppm [4] | mortality at 250 ppm [5] | also measured
1 | CC(C)(C)C1CCC(Nc2ccnc3ccccc23)CC1 (stereo not drawn) [Compound 3] | suppress disease completely | 100% | – | – | mortality at 0.2 mg ([1]; po, 48 h): 100%; mortality at 250 ppm [2]: 100%; disease suppression (Plasmopara viticola): suppress disease completely
2 | CC(C)(C)C1CCC(Oc2ccnc3ccccc23)CC1 (stereo not drawn) [Compound 4] | – | – | 100% | 100% | mortality at 250 ppm [2]: 100%
3 | CC(C)(C)[C@H]1CC[C@@H](Nc2ccnc3c(F)cccc23)CC1 [Compound 5] | – | – | – | 100% | –
4 | CC(C)(C)[C@H]1CC[C@@H](Nc2ccnc3cc(Cl)ccc23)CC1 [Compound 7] | suppress disease completely | – | – | – | disease suppression (Plasmopara viticola): suppress disease completely
5 | CC(C)(C)[C@H]1CC[C@@H](Nc2ccnc3cc(C(F)(F)F)ccc23)CC1 [Compound 8] | – | – | – | – | mortality at 0.2 mg ([1]; oral, 2×10^-4 g of a.i./animal, after 48 hours): 100%
6 | CCCC[C@H]1CC[C@@H](Oc2ccnc3ccccc23)CC1 [Compound 10] | – | 100% | 100% | 100% | –
7 | CCC(C)(C)[C@H]1CC[C@@H](Oc2ccnc3ccccc23)CC1 [Compound 14] | – | – | – | – | inhibition at 500 ppm [6]: 100%
8 | CC(C)(C)CC(C)(C)C1CCC(Nc2ccnc3ccccc23)CC1 (stereo not drawn) [Compound 19] | suppress disease completely | 100% | 100% | 100% | disease suppression (Plasmopara viticola): suppress disease completely
9 | CC(C)(C)CC(C)(C)[C@H]1CC[C@@H](Oc2ccnc3ccccc23)CC1 [Compound 20] | – | – | 100% | 100% | inhibition at 500 ppm [6]: 100%
10 | c1ccc2c(NC3CCC(C4CCCCC4)CC3)ccnc2c1 (stereo not drawn) [Compound 23] | suppress disease completely | 100% | 100% | – | –
11 | c1ccc2c(O[C@H]3CC[C@@H](C4CCCCC4)CC3)ccnc2c1 [Compound 24, 4-(4-Cyclohexylcyclohexyloxy)quinoline] | – | – | 100% | 100% | –
12 | c1ccc([C@H]2CC[C@@H](Nc3ccnc4ccccc34)CC2)cc1 [Compound 25, 4-(4-Phenylcyclohexylamino)quinoline] | suppress disease completely | – | – | – | disease suppression (Plasmopara viticola): suppress disease completely
13 | c1ccc([C@H]2CC[C@H](Nc3ccnc4ccccc34)CC2)cc1 [Compound 26, 4-(4-Phenylcyclohexylamino)quinoline] | suppress disease completely | – | – | – | disease suppression (Plasmopara viticola): suppress disease completely
14 | c1ccc([C@H]2CC[C@@H](Oc3ccnc4ccccc34)CC2)cc1 [Compound 27] | – | 100% | 100% | 100% | inhibition at 500 ppm [6]: 100%; mortality at 250 ppm [2]: 100%
15 | Fc1cccc2c(N[C@H]3CC[C@@H](c4ccccc4)CC3)ccnc12 [Compound 28] | – | – | – | 100% | inhibition at 500 ppm [6]: 100%; mortality at 250 ppm (Spodoptera littoralis): 100%
16 | CCOc1ccc([C@H]2CC[C@@H](Nc3ccnc4ccccc34)CC2)cc1 [Compound 45] | suppress disease completely | 100% | – | – | disease suppression (Phytophthora infestans): suppress disease completely
17 | Cc1cc(N[C@H]2CC[C@@H](C(C)(C)CC(C)(C)C)CC2)c2ccccc2n1 [Compound 80] | suppress disease completely | – | – | – | –
18 | CCC(C)(C)[C@H]1CC[C@@H](Nc2ccnc3cccnc23)CC1 [Compound 130] | – | 100% | 100% | 100% | mortality at 250 ppm [2]: 100%; disease suppression (Plasmopara viticola): suppress disease completely; disease suppression (Leptosphaeria nodorum): suppress disease completely
19 | CC(C)(C)CC(C)(C)[C@H]1CC[C@@H](Oc2ccnc3cccnc23)CC1 [Compound 133] | – | – | 100% | – | –
20 | c1ccc([C@H]2CC[C@@H](Oc3ccnc4cccnc34)CC2)cc1 [Compound 139] | – | 100% | 100% | 100% | mortality at 250 ppm [2]: 100%; disease suppression (Erysiphe graminis): suppress disease completely; disease suppression (Pyrenophora teres): suppress disease completely
21 | c1ccc([C@H]2CC[C@@H](Nc3ccnc4ncccc34)CC2)cc1 [Compound 208] | – | 100% | – | – | –
22 | Cc1ccc2c(NC3CCC(C(C)(C)CC(C)(C)C)CC3)ccnc2n1 (stereo not drawn) [Compound 215] | – | 100% | – | – | –
23 | CCC(C)(C)[C@H]1CC[C@@H](Nc2ncnc3cccnc23)CC1 [Compound 232] | – | – | – | – | mortality at 250 ppm [2]: 100%; disease suppression (Plasmopara viticola): suppress disease completely
24 | c1ccc([C@H]2CC[C@@H](Nc3ncnc4ncccc34)CC2)cc1 [Compound 280] | – | 100% | – | – | –
